According to patent US7045280B2, “Assay method” (AstraZeneca AB, priority 1999, dated 2006):

Key:
Type in all cases: biochemical
tPA = biological target: T1, tPA (Homo sapiens, UniProt P00750); test: tPA chromogenic substrate assay (Spectrozyme tPA, fibrin stimulator)
T1 construct: purchased Quadratech 821157
Protocol: (§1) Briefly, uPA (high molecular weight uPA Calbiochem, Cat. 627081), tpA (Quadratech, Cat. 821157) or plasmin (Quadratech, Cat. 810655) were diluted-in buffer comprising 0.5M tris HCl, 0.1% tween 20 pH 8.3. Urokinase activity was measured in a final volume of 100 μl containing 0.4 mM S2444 in assay buffer by following the increase in absorbance at 405 nm. The activity of tPA was measured in a final volume of 100 μl, containing 230 nM Spectrozyrne tPA substrate (American Diagnostica, Cat. 444L) and 40 μg per ml tPA stimulator (fibrin, Quadratech, Cat. 821116) and following the increase in absorbance at 405 nm. Plasmin activity was measured in a final volume of 100 μl containing 0.66 mM S2251, and following the increase in absorbance at 405 nm.

Plasmin = biological target: T2, Plasmin (Homo sapiens, UniProt P00747); test: Plasmin chromogenic substrate assay (S2251)
T2 construct: purchased Quadratech 810655
Protocol: as §1

uPA = biological target: T3, uPA (Homo sapiens, UniProt P00749); test: uPA chromogenic substrate assay (S2444)
T3 construct: uPA (high molecular weight uPA Calbiochem, Cat. 627081); purchased Calbiochem 627081
Protocol: as §1

T1 sequence (P00750 36-562): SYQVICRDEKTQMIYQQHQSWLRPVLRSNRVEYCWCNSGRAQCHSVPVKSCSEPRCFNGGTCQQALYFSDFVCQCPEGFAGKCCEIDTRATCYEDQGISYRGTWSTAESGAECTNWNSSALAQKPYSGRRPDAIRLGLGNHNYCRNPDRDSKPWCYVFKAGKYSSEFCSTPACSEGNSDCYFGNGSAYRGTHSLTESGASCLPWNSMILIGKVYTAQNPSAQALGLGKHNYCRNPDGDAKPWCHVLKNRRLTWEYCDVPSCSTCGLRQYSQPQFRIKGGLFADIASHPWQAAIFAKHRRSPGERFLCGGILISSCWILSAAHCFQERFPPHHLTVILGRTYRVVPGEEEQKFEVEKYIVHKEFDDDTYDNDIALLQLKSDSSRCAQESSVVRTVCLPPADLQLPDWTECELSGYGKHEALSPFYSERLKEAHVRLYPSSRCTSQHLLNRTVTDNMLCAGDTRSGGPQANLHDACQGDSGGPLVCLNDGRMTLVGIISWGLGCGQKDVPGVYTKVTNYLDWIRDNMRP
T2 sequence (P00747 97-580 partner limits assumed): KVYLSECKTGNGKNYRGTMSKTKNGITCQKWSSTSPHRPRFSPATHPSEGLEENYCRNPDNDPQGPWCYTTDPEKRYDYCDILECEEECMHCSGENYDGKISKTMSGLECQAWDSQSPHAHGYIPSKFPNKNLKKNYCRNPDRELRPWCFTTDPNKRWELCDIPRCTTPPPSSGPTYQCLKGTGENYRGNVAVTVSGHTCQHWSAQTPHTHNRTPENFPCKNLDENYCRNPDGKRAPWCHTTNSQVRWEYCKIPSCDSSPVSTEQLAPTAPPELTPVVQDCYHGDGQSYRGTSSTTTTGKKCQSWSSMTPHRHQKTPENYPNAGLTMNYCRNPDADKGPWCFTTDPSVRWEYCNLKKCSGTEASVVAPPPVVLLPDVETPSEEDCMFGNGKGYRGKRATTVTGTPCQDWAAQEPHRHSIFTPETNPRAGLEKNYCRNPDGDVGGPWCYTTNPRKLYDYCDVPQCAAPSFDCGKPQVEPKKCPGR
T2 sequence (P00747 581-810 limits assumed): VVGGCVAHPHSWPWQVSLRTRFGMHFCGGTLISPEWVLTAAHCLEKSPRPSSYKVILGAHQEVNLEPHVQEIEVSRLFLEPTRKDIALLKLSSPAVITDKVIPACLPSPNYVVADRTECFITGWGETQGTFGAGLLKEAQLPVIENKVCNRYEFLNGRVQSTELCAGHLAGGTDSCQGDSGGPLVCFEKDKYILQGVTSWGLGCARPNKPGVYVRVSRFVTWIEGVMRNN

SMILES: CC(C)[C@H](NC(=O)c1ccc(C(=O)NS(=O)(=O)c2ccc(Br)cc2)cc1)C(=O)N1CCC[C@H]1C(=O)N[C@H](C(=O)C(F)(F)F)C(C)C [elastase inhibitor, 3S-[4-[(4-bromophenyl)sulfonylaminocarbonyl]phenylcarbonyl]-L-valyl-N-[3-(1,1,1-trifluoro-4-methyl-2-oxopentyl)]-L-prolinamide]
- % inhibition (tPA; 100 μM elastase inhibitor, tPA (30 nM), Spectrozyme tPA substrate, 40 μg per ml tPA stimulator, absorbance at 405 nm): 9%
- inhibition of tPA activity (in words) (tPA; chromogenic substrate assay): did not significantly inhibit
- % inhibition (Plasmin; 100 μM elastase inhibitor, Plasmin (2.5 μg ml-1), 0.66 mM S2251, absorbance at 405 nm): 2%
- inhibition of plasmin activity (in words) (Plasmin; chromogenic substrate assay): did not significantly inhibit
- % inhibition (uPA; 100 μM elastase inhibitor, uPA (5 nM), 0.4 mM S2444, absorbance at 405 nm): 2%
- inhibition of uPA activity (in words) (uPA; chromogenic substrate assay): did not significantly inhibit
